Test results: PMC2730839 (Biochemistry, 2009)

Tests used:
Format in all cases: binding
[1] = target: T1, benzoylformate decarboxylase (BFDC) (Pseudomonas putida, UniProt P20906); assay: X-ray crystal structure
[2] = target: T1, benzoylformate decarboxylase (BFDC); assay: X-ray crystal structure; remark: listed apart in the source
[3] = target: T1, benzoylformate decarboxylase (BFDC); assay: circular dichroism titration at […] nm

T1 sequence (P20906 whole entry): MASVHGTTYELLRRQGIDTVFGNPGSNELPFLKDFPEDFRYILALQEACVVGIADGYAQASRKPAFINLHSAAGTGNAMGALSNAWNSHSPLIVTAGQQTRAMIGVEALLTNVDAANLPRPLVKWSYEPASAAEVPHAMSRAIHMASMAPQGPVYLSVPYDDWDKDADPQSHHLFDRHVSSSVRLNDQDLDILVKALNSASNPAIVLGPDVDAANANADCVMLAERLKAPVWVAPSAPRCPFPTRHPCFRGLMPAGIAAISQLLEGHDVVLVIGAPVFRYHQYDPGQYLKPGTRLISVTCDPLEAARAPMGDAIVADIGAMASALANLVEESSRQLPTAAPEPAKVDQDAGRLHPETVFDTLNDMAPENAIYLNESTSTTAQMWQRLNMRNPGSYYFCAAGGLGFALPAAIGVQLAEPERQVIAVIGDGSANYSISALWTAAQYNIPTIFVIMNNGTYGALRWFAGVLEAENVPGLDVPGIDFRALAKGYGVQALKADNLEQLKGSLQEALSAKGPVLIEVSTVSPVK

**Q.** With `COP(=O)(O)C(=O)c1ccccc1` [MBP, methyl benzoylphosphonate] as the compound, how does the Kd [1] read?
**A.** 113 µM

**Q.** For `Cc1ncc(C[n+]2csc(CCOP(=O)([O-])OP(=O)(O)O)c2C)c(N)n1` [ThDP, thiamin diphosphate], which “X-ray crystal structure (1.37 Å), seen as its adduct with MBP” value [2] is on record?
**A.** the observed electron density is best fit by the covalent adduct between ThDP and MBP

**Q.** How did the Kd [3] turn out when `COP(=O)(O)C(C)=O` [MAP, methyl acetylphosphonate] was run?
**A.** 5.49 mM
